pIC50: −log10 of the molar value. No end group written: not given here.
Legend:
Orai1 [1] = molecular target: T1, Orai1 (Homo sapiens, UniProt Q96D31); experiment: Dose response of Ca^2+ influx (SOCE), Ca^2+ add back approach, HEK293T cells; assay type: cell-based; set-up: Endogenous Orai1/store operated Ca^2+ influx have been extensively studied in HEK293T cells; endogenous in cells; host or cells: HEK293T
Protocol: HEK293T cells were cultured in 384 well plates. Cells were then exposed to vehicle or […] ELD607 for 1 h. 100 nM thapsigargin was then added followed by extracellular Ca^2+ to differentiate ER Ca^2+ release and SOCE. n=8-12 cultures per data point.
(§1) ELD607 requires Orai1 expression to inhibit Ca^2+ signaling. […] Using this approach, curves were fitted to the data and the 50% inhibitory concentrations (IC50S) were calculated.

Orai1 [2] = molecular target: T1, Orai1; experiment: Thapsigargin / Ca^2+ add back assay in HEK293T cells with anti-Orai1 shRNA; assay type: cell-based; set-up: Endogenous Orai1/store operated Ca^2+ influx have been extensively studied in HEK293T cells; endogenous in cells; host or cells: HEK293T
Protocol: HEK293T cells were transfected with anti-Orai1 shRNA for 48 h and the change in Fluo4 fluorescence was measured. Cells were then exposed to vehicle or […] ELD607 for 1 h. Thapsigargin was then added followed by extracellular Ca^2+ to differentiate ER Ca^2+ release and SOCE. n=8 cultures per condition.
as §1

[3] = test system: SARS-CoV-2 S1 pseudovirus; assay type: cell-based
NFAT = experiment: NFAT-GFP relocation to the nucleus in HEK293T cells after stimulation of SOCE; assay type: cell-based; conditions: thapsigargin
Text: To determine whether ELD607 internalized Orai1, total internal reflection fluorescence (TIRF) microscopy was used to measure Orai1 in the plasma membrane. […] However, ELD607 reduced Orai1 plasma membrane expression by ˜50% (FIG. 26, panels A-B). […] We expressed NFAT-GFP in HEK293T cells and evaluated the ability of ELD607 to attenuate NFAT relocation to the nucleus after stimulation of SOCE by confocal microscopy. ELD607 reduced the percentage of NFAT in the nucleus by greater than 50% (FIG. 26, panels C-D).

[4] = Lung retention and blood exposure after intratracheal dosing in mice; conditions: mouse, in vivo
Protocol: FIG. 30 panels B and C show % ELD607 recovered in BAL (FIG. 30 panel B) and blood (FIG. 30 panel C).
ELD607 is retained in the lung lumen. ELD607-TAMRA or vehicle (saline) was administered to mice intratracheally (0.5 mM, 1 h). Lungs were isolated, fixed, clarified and imaged using light-sheet fluorescence microscopy. […] We then dosed mice with 10 mg/kg ELD607 and collected BAL and blood. ELD607 levels declined over time in the BAL and plateaued with ˜10% of the initial dose detected after 2 h (FIG. 30, panel B).

house dust mite allergen = experiment: House dust mite (HDM) allergic lung inflammation model; assay type: in vivo, mice; conditions: HDM 14 days, 0.5 mg/kg intranasally for 2 days
Protocol: Mice were exposed to HDM allergen for 14 days, with […] ELD100 or […] ELD607 instilled intranasally for 2 days before sacrifice.
ELD607 reduces allergic inflammation. Mice were exposed to house dust mite allergen for 14 days. 0.5 mg/kg ELD100 or ELD607 were instilled intranasally for 2 days before sacrifice.

[5] = test system: E. coli lipopolysaccharide (LPS); experiment: E. coli LPS acute respiratory distress syndrome (ARDS) model; assay type: in vivo, mice; conditions: 3 mg/kg LPS
Protocol: FIG. 34 panels B-D show lung injury score (FIG. 34 panel B), % weight loss (FIG. 34 panel C), and % BAL neutrophils (FIG. 34 […]) in relation to FIG. 34 panel A. Lung injury scoring system taken from Aeffner et al. Mouse Models of Acute Respiratory Distress Syndrome: A Review of Analytical Approaches, Pathologic Features, and Common Measurements. 2015 Tox Pathol.
ELD607 reduces inflammation in an acute respiratory distress syndrome (ARDS) model. Mice were intratracheally to 3 mg/kg E. coli lipopolysaccharide (LPS). 0.5 mg/kg ELD607 was instilled intranasally 1 or 6 h later. As a control, 3 mg/kg dexamethasone was given intranasally.

[6] = molecular target: T2, Orai1 extracellular peptide 1 (OP1) (Homo sapiens, UniProt Q96D31); experiment: Dynamic light scattering binding to Orai1 extracellular loop peptide OP1; conditions: DLS, Orai1 amino acids 106-119
T2 construct: corresponding to amino acids 106-119 ([…]
Text: (§2) Endogenous Orai1/store operated Ca^2+ influx have been extensively studied in HEK293T cells, so this cell type was used to understand ELD607-Orai1 interactions. […] Thapsigargin is a SERCA pump inhibitor that prevents uptake of cytosolic Ca^2+ into the endoplasmic reticulum. Thapsigargin is commonly used to stimulate Orai1/store operated Ca^2+ influx. […] Dynamic light scattering (DLS) was used to evaluate binding of ELD607 to peptides of Orai1 extracellular loops. […] Thus, it was concluded that ELD607 interacts with Orai1.

[7] = test system: mouse hepatitis virus (MHV-A59; a murine coronavirus); experiment: Murine coronavirus MHV-A59 infection; assay type: in vivo
Protocol: Mice were dosed intranasally with 10^6 PFU MHIV-A59 followed by vehicle (saline) or 1.0 mg/kg of ELD607 per mouse 4 d p.i. BAL and lungs were collected 6 d p.i.
ELD607 normalized leukocyte composition and viral loads in the airways after murine coronavirus infection. Coronaviruses are emerging pathogens with severe outcomes in the human population. Mice were infected with 10^6 PFU mouse hepatitis virus (MHV-A59; a murine coronavirus) intranasally. The mice were then dosed with 1.0 mg/kg ELD607 or vehicle intranasally 4 days p.i. and then 2 days after dosing with ELD607 (6 days p.i.), mice were sacrificed to collect BAL and lung homogenates.

P. aeruginosa = P. aeruginosa growth in the presence of peptide; assay type: cell-based; conditions: in vitro
[8] = molecular target: T3, Orai1/store operated Ca^2+ influx (Homo sapiens, UniProt Q96D31); experiment: Store operated Ca^2+ influx in HEK293T cells (Example 2); assay type: cell-based; conditions: a6 and ELD607 combined
T3 construct: Endogenous Orai1/store operated Ca^2+ influx have been extensively studied in HEK293T cells; endogenous in cells; host or cells: HEK293T
Text: as §2

[9] = 1.0 mg/kg intranasal 4 days p.i., read 6 days p.i.

T1 sequence (Q96D31 whole entry): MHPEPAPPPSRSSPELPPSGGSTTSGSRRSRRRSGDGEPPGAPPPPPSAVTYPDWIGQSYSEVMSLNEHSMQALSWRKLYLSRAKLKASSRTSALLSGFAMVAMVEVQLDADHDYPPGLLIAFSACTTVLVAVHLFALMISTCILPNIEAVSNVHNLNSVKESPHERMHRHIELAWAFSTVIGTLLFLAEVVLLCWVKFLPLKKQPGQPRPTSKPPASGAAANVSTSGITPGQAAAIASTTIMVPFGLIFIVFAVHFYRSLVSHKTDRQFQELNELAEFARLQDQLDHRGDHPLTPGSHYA
T3 sequence (Q96D31 whole entry): as above

In the case of VHDIVNMLIRG [ELD607, VHDIVNMLIRG], the pIC50 (Orai1 [1]; Ca^2+ influx, HEK293T, 100 nM thapsigargin, read-out: IC50 (Molar)) was 7.09, the “Bottom (%)” value (Orai1 [1]; fitted curve bottom, text: maximal inhibitions) was 37.76% and the “thapsigargin-stimulated Ca^2+ release from the ER” value (Orai1 [2]; absence of extracellular Ca^2+) was “had no effect on this component”. For the same sequence, the “effect on Ca^2+ homeostasis after shRNA knockdown of Orai1” value (Orai1 [2]; anti-Orai1 shRNA 48 h) was “no longer able to affect Ca^2+ homeostasis”, the “Ca^2+ influx” value (Orai1 [2]; extracellular Ca^2+ added back) was “reduced Ca^2+ influx” and the “pseudovirus infection (% DsRed-positive cells)” value [3] was “significantly reduced infection”. The “reduction of the percentage of NFAT in the nucleus” value (NFAT) was “greater than 50%”, the “% of the initial dose detected in BAL” value [4] was about 10% and the “% of the original dose detected in the blood” value [4] was “less than 0.3%”. The BAL eosinophilia (house dust mite allergen) was “significantly reduced”, the BAL macrophages (house dust mite allergen) was “increased BAL macrophages” and the BAL neutrophilia (house dust mite allergen) was “significantly reduced BAL neutrophilia”. For the same sequence, the BAL neutrophilia ([5]; 0.5 mg/kg ELD607 intranasally) was “attenuated BAL neutrophilia”, the weight loss ([5]; 0.5 mg/kg ELD607 intranasally) was “reduced weight loss” and the “lung damage (lung injury score)” value ([5]; 0.5 mg/kg ELD607 intranasally 1 or 6 h later) was “significantly reduced lung damage caused by LPS”. For the same sequence, the “interaction with OP1 (Z-average increase)” value [6] was “significant interactions”, the “lung lymphocyte levels (B cells and T cells)” value [7, 9] was “significantly reduced lung lymphocyte levels” and the “lung monocyte and macrophage levels” value [7, 9] was “normalized lung monocyte and macrophage levels”. For the same sequence, the “viral loads in the lungs and BAL” value ([7]; one dose 1.0 mg/kg) was “significantly reduced”, the P. aeruginosa growth (P. aeruginosa) was “no effect on P. aeruginosa growth” and the “additivity of inhibitory effects of a6 and ELD607 on thapsigargin-induced elevations in cytosolic Ca^2+” value [8] was “not additive”.
